Test results from ChEMBL document CHEMBL5120838, “Synthesis and biological evaluation of geniposide derivatives as inhibitors of hyperuricemia, inflammatory and fibrosis” (Eur J Med Chem, 2022).

Molecular target: Xanthine dehydrogenase/oxidase (Bos taurus, UniProt P80457)
Experiment: Inhibition of bovine XOD assessed as inhibition of uric acid formation using xanthine as substrate preincubated with enzyme for 5 mins followed by substrate addition and measured for 30 mins by microplate reader analysis

Xanthine dehydrogenase/oxidase, sequence (P80457 whole entry): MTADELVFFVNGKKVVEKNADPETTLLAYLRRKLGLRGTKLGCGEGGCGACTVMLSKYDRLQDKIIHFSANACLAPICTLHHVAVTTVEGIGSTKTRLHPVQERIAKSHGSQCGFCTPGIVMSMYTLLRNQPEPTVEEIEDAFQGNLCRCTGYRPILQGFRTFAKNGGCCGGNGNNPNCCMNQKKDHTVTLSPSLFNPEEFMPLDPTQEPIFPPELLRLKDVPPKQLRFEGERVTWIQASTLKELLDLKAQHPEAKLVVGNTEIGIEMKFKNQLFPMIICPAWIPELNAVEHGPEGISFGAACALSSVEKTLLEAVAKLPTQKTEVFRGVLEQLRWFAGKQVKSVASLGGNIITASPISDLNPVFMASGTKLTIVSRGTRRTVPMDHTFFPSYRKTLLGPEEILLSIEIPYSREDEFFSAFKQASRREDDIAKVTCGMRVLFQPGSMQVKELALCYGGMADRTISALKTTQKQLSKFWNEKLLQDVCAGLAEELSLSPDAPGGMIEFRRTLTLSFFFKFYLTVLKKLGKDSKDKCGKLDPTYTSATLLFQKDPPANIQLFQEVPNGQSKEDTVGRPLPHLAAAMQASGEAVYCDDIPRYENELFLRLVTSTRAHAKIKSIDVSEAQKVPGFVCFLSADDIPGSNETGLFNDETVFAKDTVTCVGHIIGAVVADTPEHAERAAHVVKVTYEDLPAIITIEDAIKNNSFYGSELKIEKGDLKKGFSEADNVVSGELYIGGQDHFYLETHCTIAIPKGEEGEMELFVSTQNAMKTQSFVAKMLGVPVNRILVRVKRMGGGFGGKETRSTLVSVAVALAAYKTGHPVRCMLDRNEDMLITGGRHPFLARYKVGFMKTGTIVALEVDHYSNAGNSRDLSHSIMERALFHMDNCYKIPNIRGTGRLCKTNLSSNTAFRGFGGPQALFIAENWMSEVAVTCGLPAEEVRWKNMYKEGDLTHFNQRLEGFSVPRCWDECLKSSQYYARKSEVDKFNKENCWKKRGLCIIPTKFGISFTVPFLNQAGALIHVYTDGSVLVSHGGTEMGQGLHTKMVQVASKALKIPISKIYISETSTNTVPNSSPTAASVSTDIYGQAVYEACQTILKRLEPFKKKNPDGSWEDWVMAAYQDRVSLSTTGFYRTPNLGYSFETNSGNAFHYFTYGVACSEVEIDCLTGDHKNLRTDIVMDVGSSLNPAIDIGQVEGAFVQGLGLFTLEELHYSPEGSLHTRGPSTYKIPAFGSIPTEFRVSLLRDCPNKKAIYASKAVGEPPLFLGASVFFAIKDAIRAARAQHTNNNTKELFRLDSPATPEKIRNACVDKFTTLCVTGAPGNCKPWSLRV

Row | SMILES | IC50
1 | CCC(=O)OCC1=CC[C@@H]2C(C(=O)O)=CO[C@@H](O[C@@H]3O[C@H](COC(=O)CC)[C@@H](OC(=O)CC)[C@H](OC(=O)CC)[C@H]3OC(=O)CC)[C@H]12 | 48.8 µM
2 | COC(=O)C1=COC(OC(=O)Nc2ccccc2Br)[C@@H]2C(COC(=O)Nc3ccccc3Br)=CC[C@H]12 (stereo partly specified) | 23.9 µM
3 | CC(=O)OCC1=CC[C@@H]2C(C(=O)Sc3ncc[nH]3)=CO[C@@H](O[C@@H]3O[C@H](COC(C)=O)[C@@H](OC(C)=O)[C@H](OC(C)=O)[C@H]3OC(C)=O)[C@H]12 | 87.5 µM
4 | CCCC(=O)OCC1=CC[C@@H]2C(C(=O)O)=CO[C@@H](O[C@@H]3O[C@H](COC(=O)CCC)[C@@H](OC(=O)CCC)[C@H](OC(=O)CCC)[C@H]3OC(=O)CCC)[C@H]12 | 55.7 µM
5 | CC(C)CC(=O)OCC1=CC[C@@H]2C(C(=O)O)=CO[C@@H](O[C@@H]3O[C@H](COC(=O)CC(C)C)[C@@H](OC(=O)CC(C)C)[C@H](OC(=O)CC(C)C)[C@H]3OC(=O)CC(C)C)[C@H]12 | 69.7 µM
6 | CC(=O)OCC1=CC[C@@H]2C(C(=O)Nc3cccc(F)c3)=CO[C@@H](O[C@@H]3O[C@H](COC(C)=O)[C@@H](OC(C)=O)[C@H](OC(C)=O)[C@H]3OC(C)=O)[C@H]12 | 28.8 µM
7 | CC(=O)OCC1=CC[C@@H]2C(C(=O)Sc3ccncc3)=CO[C@@H](O[C@@H]3O[C@H](COC(C)=O)[C@@H](OC(C)=O)[C@H](OC(C)=O)[C@H]3OC(C)=O)[C@H]12 | 20.5 µM
8 | CC(=O)OCC1=CC[C@@H]2C(C(=O)Sc3cccs3)=CO[C@@H](O[C@@H]3O[C@H](COC(C)=O)[C@@H](OC(C)=O)[C@H](OC(C)=O)[C@H]3OC(C)=O)[C@H]12 | 22.8 µM
9 | COC(=O)C1=COC(OC(=O)Nc2ccc(OC)cc2)[C@@H]2C(COC(=O)Nc3ccc(OC)cc3)=CC[C@H]12 (stereo partly specified) | 12.8 µM
10 | CC(=O)OCC1=CC[C@@H]2C(C(=O)Nc3nn[nH]n3)=CO[C@@H](O[C@@H]3O[C@H](COC(C)=O)[C@@H](OC(C)=O)[C@H](OC(C)=O)[C@H]3OC(C)=O)[C@H]12 | 63.9 µM
11 | COC(=O)C1=COC(OC(=O)NC(C)(C)C)[C@@H]2C(COC(=O)NC(C)(C)C)=CC[C@H]12 (stereo partly specified) | 104 µM
12 | CC(=O)OCC1=CC[C@@H]2C(C(=O)SC3=NCCS3)=CO[C@@H](O[C@@H]3O[C@H](COC(C)=O)[C@@H](OC(C)=O)[C@H](OC(C)=O)[C@H]3OC(C)=O)[C@H]12 | 12.6 µM
13 | CC(=O)OCC1=CC[C@@H]2C(C(=O)Nc3ccc(C(=O)O)cc3)=CO[C@@H](O[C@@H]3O[C@H](COC(C)=O)[C@@H](OC(C)=O)[C@H](OC(C)=O)[C@H]3OC(C)=O)[C@H]12 | 32.4 µM
14 | CC(=O)OCC1=CC[C@@H]2C(C(=O)NCc3ccncc3)=CO[C@@H](O[C@@H]3O[C@H](COC(C)=O)[C@@H](OC(C)=O)[C@H](OC(C)=O)[C@H]3OC(C)=O)[C@H]12 | 36.6 µM
15 | CC(C)(C)C(=O)OCC1=CC[C@@H]2C(C(=O)O)=CO[C@@H](O[C@@H]3O[C@H](COC(=O)C(C)(C)C)[C@@H](OC(=O)C(C)(C)C)[C@H](OC(=O)C(C)(C)C)[C@H]3OC(=O)C(C)(C)C)[C@H]12 | 91.2 µM
16 | CC(=O)OCC1=CC[C@@H]2C(C(=O)Oc3cncc4ccccc34)=CO[C@@H](O[C@@H]3O[C@H](COC(C)=O)[C@@H](OC(C)=O)[C@H](OC(C)=O)[C@H]3OC(C)=O)[C@H]12 | 30.7 µM
17 | O=C(O)C1=CO[C@@H](O[C@@H]2O[C@H](CO)[C@@H](O)[C@H](O)[C@H]2O)[C@@H]2C(CO)=CC[C@H]12 [GENIPOSIDIC ACID] | 62.2 µM
18 | CC(=O)OCC1=CC[C@@H]2C(C(=O)Nc3cccc4[nH]ccc34)=CO[C@@H](O[C@@H]3O[C@H](COC(C)=O)[C@@H](OC(C)=O)[C@H](OC(C)=O)[C@H]3OC(C)=O)[C@H]12 | 17.5 µM

Row | SMILES | IC50
19 | CC(=O)OCC1=CC[C@@H]2C(C(=O)Nc3ccc(C(=O)NCC(=O)O)cc3)=CO[C@@H](O[C@@H]3O[C@H](COC(C)=O)[C@@H](OC(C)=O)[C@H](OC(C)=O)[C@H]3OC(C)=O)[C@H]12 | 73.6 µM
20 | CC(=O)OCC1=CC[C@@H]2C(C(=O)Oc3ccncc3)=CO[C@@H](O[C@@H]3O[C@H](COC(C)=O)[C@@H](OC(C)=O)[C@H](OC(C)=O)[C@H]3OC(C)=O)[C@H]12 | 9.15 µM
21 | COC(=O)C1=COC(O)[C@@H]2C(CO)=CC[C@H]12 (stereo partly specified) | 93.4 µM
22 | COC(=O)C1=COC(OC(=O)NC2CCCCC2)[C@@H]2C(COC(=O)NC3CCCCC3)=CC[C@H]12 (stereo partly specified) | 281 µM
23 | CC(=O)OCC1=CC[C@@H]2C(C(=O)Oc3cccc(C#N)c3)=CO[C@@H](O[C@@H]3O[C@H](COC(C)=O)[C@@H](OC(C)=O)[C@H](OC(C)=O)[C@H]3OC(C)=O)[C@H]12 | 5.15 µM
24 | CCNC(=O)OCC1=CC[C@@H]2C(C(=O)OC)=COC(OC(=O)NCC)[C@H]12 (stereo partly specified) | 61.2 µM
25 | COC(=O)C1=COC(OC(=O)Nc2ccc(C)cc2)[C@@H]2C(COC(=O)Nc3ccc(C)cc3)=CC[C@H]12 (stereo partly specified) | 73.6 µM
26 | CC(=O)OCC1=CC[C@@H]2C(C(=O)On3cccn3)=CO[C@@H](O[C@@H]3O[C@H](COC(C)=O)[C@@H](OC(C)=O)[C@H](OC(C)=O)[C@H]3OC(C)=O)[C@H]12 | 8.74 µM
27 | CC(=O)OCC1=CC[C@@H]2C(C(=O)Nc3ccccc3-c3ccccc3)=CO[C@@H](O[C@@H]3O[C@H](COC(C)=O)[C@@H](OC(C)=O)[C@H](OC(C)=O)[C@H]3OC(C)=O)[C@H]12 | 75.5 µM
28 | CC(=O)OCC1=CC[C@@H]2C(C(=O)Nn3ncc4ccccc43)=CO[C@@H](O[C@@H]3O[C@H](COC(C)=O)[C@@H](OC(C)=O)[C@H](OC(C)=O)[C@H]3OC(C)=O)[C@H]12 | 22.8 µM
29 | CC(=O)OCC1=CC[C@@H]2C(C(=O)Nc3cncc4ccccc34)=CO[C@@H](O[C@@H]3O[C@H](COC(C)=O)[C@@H](OC(C)=O)[C@H](OC(C)=O)[C@H]3OC(C)=O)[C@H]12 | 18.5 µM
30 | COC(=O)C1=CO[C@@H](O[C@@H]2O[C@H](CO)[C@@H](O)[C@H](O)[C@H]2O)[C@H]2[C@@H]1CC1OC12CO (stereo partly specified) | 165 µM
31 | COC(=O)C1=COC(OC(=O)NC(C)C)[C@@H]2C(COC(=O)NC(C)C)=CC[C@H]12 (stereo partly specified) | 80.2 µM
32 | COC(=O)C1=COC(OC(=O)Nc2cccc(C)c2)[C@@H]2C(COC(=O)Nc3cccc(C)c3)=CC[C@H]12 (stereo partly specified) | 140 µM
33 | CC(=O)OCC1=CC[C@@H]2C(C(=O)NCCC#N)=CO[C@@H](O[C@@H]3O[C@H](COC(C)=O)[C@@H](OC(C)=O)[C@H](OC(C)=O)[C@H]3OC(C)=O)[C@H]12 | 15.8 µM
34 | CC(=O)OCC1=CC[C@@H]2C(C(=O)O)=CO[C@@H](O[C@@H]3O[C@H](COC(C)=O)[C@@H](OC(C)=O)[C@H](OC(C)=O)[C@H]3OC(C)=O)[C@H]12 | 35.3 µM
35 | COC(=O)C1=COC(OC(=O)NCCCCl)[C@@H]2C(COC(=O)NCCCCl)=CC[C@H]12 (stereo partly specified) | 48.8 µM
36 | CC(=O)OCC1=CC[C@@H]2C(C(=O)SCc3ccccc3)=CO[C@@H](O[C@@H]3O[C@H](COC(C)=O)[C@@H](OC(C)=O)[C@H](OC(C)=O)[C@H]3OC(C)=O)[C@H]12 | 181 µM
